Data from patent US20130078613A1, “Selection of HCV Treatment” (ROCHE MOLECULAR SYSTEMS, priority 2011, published 2013).
Marks after values point to notes of the source that are not given here.

Tests used:
[1] = system: HCV; conditions: RBV monotherapy; cited from earlier work
[2] = system: CHC genotype 1 or 4; test: Clinical Study NV20536; format: in vivo, human; conditions: for SVR-12 and SVR-24: across RVR-guided arms; for relapse / SVR-12 (%) / SVR-12 n/N / SVR-24 (%) / SVR-24 n/N: sRVR patients
Text: (§1) The term “response” to treatment is a desirable response to the administration of an agent. Virological endpoints included “early virological response” (EVR), defined as ≧2-log drop in serum HCV RNA from baseline to week 12 (by Cobas Amplicor HCV Monitor Test, v2.0, limit of quantitation 600 IU/mL), complete EVR (cEVR) defined as undetectable HCV RNA (<15 IU/mL) in serum (by Cobas Amplicor HCV Test v2.0, […]) or and “sustained virological response” (SVR), defined as undetectable HCV RNA (<15 IU/mL) at the end of either a 12-week (SVR-12) or a 24-week (SVR-24) untreated follow-up period. The term “sustained rapid virological response” (sRVR) refers to undetectable HCV RNA (<15 IU/mL) during the period of 4 weeks and 22 weeks of treatment. The term “extended rapid virological response” (eRVR) refers to undetectable HCV RNA (<15 IU/mL) during the period of between 4 weeks and 20 weeks of treatment.
Study NV20536 was designed to determine the optimal dose (500 or 1000 mg twice daily [BID]) and duration (8 or 12 weeks) of RO5024048 in combination with PEG-IFN/RBV in treatment-naïve CHC genotype 1 or 4 patients. Patients enrolled in Study NV20536 were randomized to one of five treatment groups (FIG. 1A) (approximately 80 patients per treatment group). In the response-guided treatment groups, patients with a sustained RVR (sRVR, defined as undetectable HCV RNA from week 4-22) stopped all therapy at Week 24.
Patients received double blinded experimental treatment with RO5024048 500 mg BID and standard of care treatment (SOC, Pegasys 180 μg sc qw+Copegus 1000 mg (<75 kg) or 1200 mg (≧75 kg) po qd) or RO5024048 1000 mg BID and SOC respectively, for 12 weeks followed by SOC for 12 weeks. Patients who achieve an RVR, defined as undetectable HCV RNA at week 4, and remain undetectable through week 22 stopped all treatment at week 24. Non-RVR patients received SOC for an additional 24 weeks for a total treatment duration of 48 weeks.
Patients received double blinded experimental treatment with RO5024048 1000 mg BID and SOC for 8 weeks followed by SOC for 16 weeks. Patients who achieve an RVR defined as undetectable HCV RNA at week 4, and remain undetectable through week 22 stopped all treatment at week 24. Non-RVR patients received SOC for an additional 24 weeks for a total treatment duration of 48 weeks. […]
(§2) The Roche Clinical Repository (RCR) is an optional program that requires separate consent; data are anonymized to assure patient privacy. The RCR DNA samples were used to determine IL28B status using TaqMan Real-Time PCR for rs12979860. Efficacy endpoints were summarized for the two subgroups, CC vs. non-CC (CT and TT).

[3] = system: CHC genotype 1 or 4; test: Clinical Study NV22621; format: in vivo, human
Text: as §1
Study NV22621 was designed to determine the safety and efficacy of longer treatment duration (24 weeks) of 1000 mg BID RO5024048 in combination with PEG-IFN/RBV in treatment naïve CHC genotype 1 or 4 patients. Patients enrolled in Study NV22621 were randomized to one of two treatment groups (FIG. 1B) (approximately 80 patients per treatment group). In the response-guided treatment group, patients with a sustained RVR (sRVR, defined as undetectable HCV RNA from week 4-22) stopped all therapy at Week 24.
as §2, with “PCR.” for “PCR for rs12979860.”

[4] = target: NS5B-directed HCV polymerase (Hepatitis C virus genotype 1b, UniProt Q9WMX2); conditions: ref [7]; cited from earlier work
[5] = target: T1, NS5B (S282T) (Hepatitis C virus genotype 1b, UniProt Q9WMX2, S2701T); conditions: sequential passage of replicon cells; cited from earlier work
T1 construct: Amino acid substitution in NS5B (S282T)

[6] = system: HCV; conditions: combination with PEG-IFN and RBV; cited from earlier work
[7] = system: HCV genotypes (1-4); conditions: four main genotypes (1-4); cited from earlier work
[8] = extensively converted to RO4995855; cited from earlier work
[9] = Group A, 500 mg 12 wks + P/R RVR-guided, IL28B CC
[10] = Group A, 500 mg 12 wks + P/R RVR-guided, IL28B NonCC
[11] = Group A, 500 mg 12 wks + P/R RVR-guided, Total
[12] = Group B, 1000 mg 8 wks + P/R RVR-guided, IL28B CC
[13] = Group B, 1000 mg 8 wks + P/R RVR-guided, IL28B NonCC
[14] = Group B, 1000 mg 8 wks + P/R RVR-guided, Total
[15] = Group C, 1000 mg 12 wks + P/R RVR-guided, IL28B CC
[16] = Group C, 1000 mg 12 wks + P/R RVR-guided, IL28B NonCC
[17] = Group C, 1000 mg 12 wks + P/R RVR-guided, Total
[18] = Group A, 1000 mg 24 wks + P/R RVR-guided, Total, sRVR patients

T1 sequence (Q9WMX2 2420-3010 S2701T): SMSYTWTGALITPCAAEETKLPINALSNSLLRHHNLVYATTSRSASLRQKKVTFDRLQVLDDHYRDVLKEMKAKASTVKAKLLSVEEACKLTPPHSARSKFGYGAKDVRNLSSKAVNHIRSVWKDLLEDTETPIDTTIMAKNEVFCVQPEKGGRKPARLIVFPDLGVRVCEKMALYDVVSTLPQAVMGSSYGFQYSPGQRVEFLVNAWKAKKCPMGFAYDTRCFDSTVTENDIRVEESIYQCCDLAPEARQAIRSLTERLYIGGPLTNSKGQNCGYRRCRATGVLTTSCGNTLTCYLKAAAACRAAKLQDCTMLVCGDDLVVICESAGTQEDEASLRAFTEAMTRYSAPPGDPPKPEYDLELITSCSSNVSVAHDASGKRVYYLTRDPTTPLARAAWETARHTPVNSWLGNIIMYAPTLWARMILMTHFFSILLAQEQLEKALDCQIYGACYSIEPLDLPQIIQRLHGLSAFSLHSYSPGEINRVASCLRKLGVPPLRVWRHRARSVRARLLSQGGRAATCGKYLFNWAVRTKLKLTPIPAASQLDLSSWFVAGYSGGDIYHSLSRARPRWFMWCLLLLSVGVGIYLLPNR
Chain of NS5B-directed HCV polymerase (Q9WMX2 2420-3010): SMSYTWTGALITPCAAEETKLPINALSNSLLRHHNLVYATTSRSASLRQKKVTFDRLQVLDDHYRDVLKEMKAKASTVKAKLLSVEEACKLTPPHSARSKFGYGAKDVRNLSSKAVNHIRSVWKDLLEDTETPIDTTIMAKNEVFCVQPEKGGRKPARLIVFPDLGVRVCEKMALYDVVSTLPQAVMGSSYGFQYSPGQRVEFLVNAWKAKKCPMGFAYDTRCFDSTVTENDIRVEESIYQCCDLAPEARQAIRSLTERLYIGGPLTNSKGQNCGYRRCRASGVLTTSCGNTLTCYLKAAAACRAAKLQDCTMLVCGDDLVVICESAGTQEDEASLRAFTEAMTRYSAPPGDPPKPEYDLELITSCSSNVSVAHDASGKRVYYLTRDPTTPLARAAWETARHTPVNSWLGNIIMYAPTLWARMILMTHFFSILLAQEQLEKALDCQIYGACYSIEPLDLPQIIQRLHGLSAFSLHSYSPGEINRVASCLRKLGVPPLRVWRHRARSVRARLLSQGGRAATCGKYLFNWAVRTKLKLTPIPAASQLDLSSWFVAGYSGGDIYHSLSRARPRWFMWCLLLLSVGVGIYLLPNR

In the case of NC(=O)c1ncn([C@@H]2O[C@H](CO)[C@@H](O)[C@H]2O)n1 [ribavirin, 1-((2R,3R,4S,5R)-3,4-Dihydroxy-5-hydroxymethyl-tetrahydro-furan-2-yl)-1H-[1,2,4]triazole-3-carboxylic acid amide], the “effect on the replication of HCV” value [1] is given as “little or no effect”.
For CC(C)C(=O)OC[C@H]1O[C@@H](n2ccc(N)nc2=O)[C@](C)(F)[C@@H]1OC(=O)C(C)C [RO5024048, mericitabine], the “RVR (undetectable HCV RNA at week 4)” value ([2]; 500-mg 12-week RVR-guided group, with PEG-IFN/RBV, overall population) was 38%, the “SVR-12 and SVR-24” value ([2]; CC patients who achieve sRVR and stop all treatment after 24 weeks) was 67-90% and the relapse ([2]; CC, arm A, 12 weeks followup after EOT) was 2/8. The relapse ([2]; CC, arm A, 24 weeks followup after EOT) was 2/7, the relapse ([2]; CC, arm C, 12 weeks followup after EOT) was 4/12 and the relapse ([2]; CC, arm C, 24 weeks followup after EOT) was 4/12. The “SVR-12 (%)” value [2, 9] was “(75.0%)”, the “SVR-12 n/N” value [2, 9] was 6/8 and the “SVR-24 (%)” value [2, 9] was “(85.7%)”. The “SVR-24 n/N” value [2, 9] was 6/7, the “SVR-12 (%)” value [2, 10] was “(66.7%)” and the “SVR-12 n/N” value [2, 10] was 6/9. The “SVR-24 (%)” value [2, 10] was “(55.6%)”, the “SVR-24 n/N” value [2, 10] was 5/9 and the “SVR-12 (%)” value [2, 11] was “(70.6%)*”. The “SVR-12 n/N” value [2, 11] was 12/17, the “SVR-24 (%)” value [2, 11] was “(68.8%)*” and the “SVR-24 n/N” value [2, 11] was 11/16. The “sRVR (%)” value ([2]; Group A, RO5024048 500 mg 12 wks + P/R 24/48 wks RVR-guided, N = 49, Total) was “(36.7%)”, the “SVR-12 (%)” value [2, 12] was “(90.0%)” and the “SVR-12 n/N” value [2, 12] was 9/10. For the same molecule, the “SVR-24 (%)” value [2, 12] was “(80.0%)”, the “SVR-24 n/N” value [2, 12] was 8/10 and the “SVR-12 (%)” value [2, 13] was “(38.5%)”. The “SVR-12 n/N” value [2, 13] was 5/13, the “SVR-24 (%)” value [2, 13] was “(25.0%)” and the “SVR-24 n/N” value [2, 13] was 3/12. The “SVR-12 (%)” value [2, 14] was “(60.9%)”, the “SVR-12 n/N” value [2, 14] was 14/23 and the “SVR-24 (%)” value [2, 14] was “(50.0%)*”. The “SVR-24 n/N” value [2, 14] was 11/22, the “sRVR (%)” value ([2]; Group B, RO5024048 1000 mg 8 wks + P/R 24/48 wks RVR-guided, N = 49, Total) was “(46.9%)” and the “SVR-12 n/N” value [2, 15] was 8/12. For the same molecule, the “SVR-24 (%)” value [2, 15] was “(66.7%)”, the “SVR-24 n/N” value [2, 15] was 8/12 and the “SVR-12 n/N” value [2, 16] was 5/18. For the same molecule, the “SVR-24 (%)” value [2, 16] was “(22.2%)”, the “SVR-24 n/N” value [2, 16] was 4/18 and the “SVR-12 (%)” value [2, 17] was “(43.3%)”. For the same molecule, the “SVR-12 n/N” value [2, 17] was 13/30, the “SVR-24 (%)” value [2, 17] was “(40.0%)” and the “SVR-24 n/N” value [2, 17] was 12/30. The “sRVR (%)” value ([2]; Group C, RO5024048 1000 mg 12 wks + P/R 24/48 wks RVR-guided, N = 46, Total) was “(65.2%)”, the “SVR-12 and SVR-24” value ([2]; non-CC patients who achieve sRVR and stop all treatment after 24 weeks) was 22-67% and the relapse ([2]; non-CC, Arm A, 12 weeks followup after EOT) was 3/9. For the same molecule, the relapse ([2]; non-CC, Arm A, 24 weeks followup after EOT) was 4/9, the relapse ([2]; non-CC, Arm C, 12 weeks followup after EOT) was 13/18 and the relapse ([2]; non-CC, Arm C, 24 weeks followup after EOT) was 14/18. For the same molecule, the cEVR ([3]; 1000-mg group, RCR-consented population) was 94%, the “SVR-12 n/N” value ([3]; Group A, 1000 mg 24 wks + P/R RVR-guided, IL28B CC, sRVR patients) was 12/15 and the “SVR-12 n/N” value ([3]; Group A, 1000 mg 24 wks + P/R RVR-guided, IL28B NonCC, sRVR patients) was 13/18. For the same molecule, the “SVR-12 (%)” value [3, 18] was “(75.0%)*”, the “SVR-12 n/N” value [3, 18] was 24/32 and the “sRVR (%)” value ([3]; Group A, RO5024048 1000 mg 24 wks + P/R 24/48 wks RVR-guided, N = 52, Total) was “(63.5%)”. For the same molecule, the RVR ([3]; RVR-guided 1000-mg group (24 wks with PEG-IFN/RBV), overall population) was 63%, the cEVR ([3]; RVR-guided 1000-mg group, overall ITT population) was 89% and the week-24 virological response ([3]; RVR-guided 1000-mg group, overall population) was 91%. The “maximal rate of undetectable viral load” value ([3]; non-CC genotype, 24 weeks of triple therapy, at weeks 20 to 24 (data not shown)) was > 90%, the IC50 [4] was 610 ± 40 nM and the “resistance conferred by NS5B S282T substitution” value [5] was “low level resistance”. The “antiviral effect of combination” value [6] was “additive antiviral effect”, the “in vitro activity across genotypes” value [7] was “Activity has been demonstrated” and the “absorption after oral administration” value [8] was “rapidly absorbed”.
